The values below come from ChEMBL document CHEMBL1139592, “Quantitative structure-activity relationship studies for antioxidant hydroxybenzalacetones by quantum chemical- and 3-D-QSAR(CoMFA) analyses” (Bioorg Med Chem Lett, 2005).

This experiment is filed under the species Oryctolagus cuniculus. Nature of the experiment: Inhibitory concentration against peroxidation of rabbits red blood cell (RBC) membrane ghost induced by gamma-ray irradiation. Format: functional. As to conditions: light or radiation study.

For `CC(=O)/C=C/c1cc(C(C)(C)C)ccc1O`, the concentration for half-maximal inhibition (IC50) was 8 µM.
`CC(=O)/C=C/c1cccc(F)c1O` showed a concentration for half-maximal inhibition (IC50) of 51.2 µM.
Under `COc1ccc(O)c(/C=C/C(C)=O)c1` stands 3.98 µM.
`CC(=O)/C=C/c1cc(C)ccc1O` had an IC50 of 8 µM.
As for `CCOc1cccc(/C=C/C(C)=O)c1O`, the figure is 3.31 µM.
Under `COc1cc(/C=C/C(C)=O)cc(OC)c1O` stands 2.52 µM; under `CC(=O)/C=C/c1cc(Cl)ccc1O`, 60.3 µM; under `CC(=O)/C=C/c1cc(O)ccc1O`, 1.43 µM.
Under `COc1ccc(/C=C/C(C)=O)c(O)c1` stands 35.5 µM; under `CC(=O)/C=C/c1cccc(C(C)(C)C)c1O`, 2.19 µM; under `CC(=O)/C=C/c1ccccc1O`, 37.8 µM.
In turn, `CC(=O)/C=C/c1cccc(O)c1O` had a concentration for half-maximal inhibition (IC50) of 1.96 µM.
For the compound `CC(=O)/C=C/c1cc(C)c(O)c(C)c1`, the concentration for half-maximal inhibition (IC50) was 6.32 µM.
Turning to `COc1cccc(/C=C/C(C)=O)c1O`, the concentration for half-maximal inhibition (IC50) is 3.25 µM.
`CC(=O)/C=C/c1cccc(C)c1O`: the midpoint of inhibition, the IC50, lay at 3.63 µM.
As for `CC(=O)/C=C/c1ccc(O)c(O)c1`, the figure is 2.34 µM; as for `CC(=O)/C=C/c1ccc(O)cc1`, 66.1 µM; as for `COc1cc(/C=C/C(C)=O)ccc1O` [DEHYDROZINGERONE], 11.5 µM.

In general, IC50 refers to the concentration at which inhibition is half-maximal. A higher IC50 goes with weaker potency in that assay.
